Article PMC11033320, “Activation of p53 signaling and regression of breast and prostate carcinoma cells by spirooxindole-benzimidazole small molecules” (Frontiers in Pharmacology, 2024)

Legend:
SN12C = assay: NCI anticancer screening, Renal Cancer SN12C; assay type: cell-based; conditions: Homo sapiens, read-out: % Growth Inhibition (GI %)
From the text: (§1) The compound has been processed according to standard method NCI-60 Human Tumor Cell Lines Screen for organic compound at development therapeutic program (DTP). Requests for access to this national resource can be submitted online at: […]

[1] = biological target: T1, Mdm2 (residues 1–118 T47W) (Homo sapiens, UniProt Q00987, T47W); assay: MDM2 binding by microscale thermophoresis (MST)
T1 construct: Mdm2 (residues 1–118 T47W; 500 nM)
Experimental: MST is a complementary biophysical assay to assess the binding of a small molecule to its receptor. […] Experiments were performed in 50 mM phosphate buffer at pH 7.4 containing 150 mM NaCl, 5 mM DTT, and 5% DMSO. […] Kd values and uncertainties were calculated using the MO Affinity Analysis software.

SF-268 = assay: NCI anticancer screening, CNS Cancer SF-268; assay type: cell-based; conditions: Homo sapiens; SF-268, 10 μM; read-out: % Growth Inhibition (GI %)
From the text: as §1

MDA-MB-435 = assay: NCI anticancer screening, Melanoma MDA-MB-435; assay type: cell-based; conditions: Homo sapiens; MDA-MB-435, 10 μM; read-out: % Growth Inhibition (GI %)
From the text: as §1

SF-295 = assay: NCI anticancer screening, CNS Cancer SF-295; assay type: cell-based; conditions: Homo sapiens; SF-295, 10 μM; read-out: % Growth Inhibition (GI %)
From the text: as §1

SNB-19 = assay: NCI anticancer screening, CNS Cancer SNB-19; assay type: cell-based; conditions: Homo sapiens; SNB-19, 10 μM; read-out: % Growth Inhibition (GI %)
From the text: as §1

HCT-116 = assay: NCI anticancer screening, Colon Cancer HCT-116; assay type: cell-based; conditions: Homo sapiens; HCT-116, 10 μM; read-out: % Growth Inhibition (GI %)
From the text: as §1

PC-3 cells = assay: MTT assay anticancer activity, PC-3; assay type: cell-based; conditions: Homo sapiens, PC-3, 5 µM, mean ± SEM, read-out: growth inhibition percentage of PC-3
From the text: MTT method was done as described above.

TK-10 = assay: NCI anticancer screening, Renal Cancer TK-10; assay type: cell-based; conditions: Homo sapiens; TK-10, 10 μM; read-out: % Growth Inhibition (GI %)
From the text: as §1

HL-60(TB) = assay: NCI anticancer screening, Leukemia HL-60(TB); assay type: cell-based; conditions: Homo sapiens, read-out: % Growth Inhibition (GI %)
From the text: as §1

DU-145 = assay: NCI anticancer screening, DU-145; assay type: cell-based; conditions: Homo sapiens; DU-145, 10 μM; read-out: % Growth Inhibition (GI %)
From the text: as §1

NCI/ADR-RES = assay: NCI anticancer screening, Ovarian Cancer NCI/ADR-RES; assay type: cell-based; conditions: Homo sapiens, read-out: % Growth Inhibition (GI %)
From the text: as §1

NCI-H226 = assay: NCI anticancer screening, Non-Small Cell Lung Cancer NCI-H226; assay type: cell-based; conditions: Homo sapiens; NCI-H226, 10 μM; read-out: % Growth Inhibition (GI %)
From the text: as §1

COLO 205 = assay: NCI anticancer screening, Colon Cancer COLO 205; assay type: cell-based; conditions: Homo sapiens; COLO 205, 10 μM; read-out: % Growth Inhibition (GI %)
From the text: as §1

SK-MEL-5 = assay: NCI anticancer screening, Melanoma SK-MEL-5; assay type: cell-based; conditions: Homo sapiens; SK-MEL-5, 10 μM; read-out: % Growth Inhibition (GI %)
From the text: as §1

786-0 = assay: NCI anticancer screening, Renal Cancer 786-0; assay type: cell-based; conditions: Homo sapiens; 786-0, 10 μM; read-out: % Growth Inhibition (GI %)
From the text: as §1

CCRF-CEM = assay: NCI anticancer screening, Leukemia CCRF-CEM; assay type: cell-based; conditions: Homo sapiens, read-out: % Growth Inhibition (GI %)
From the text: as §1

SK-OV-3 = assay: NCI anticancer screening, Ovarian Cancer SK-OV-3; assay type: cell-based; conditions: Homo sapiens; SK-OV-3, 10 μM; read-out: % Growth Inhibition (GI %)
From the text: as §1

OVCAR-8 = assay: NCI anticancer screening, Ovarian Cancer OVCAR-8; assay type: cell-based; conditions: Homo sapiens; OVCAR-8, 10 μM; read-out: % Growth Inhibition (GI %)
From the text: as §1

MDA-MB 231 cells = conditions: for inhibition: 5 µM
HOP-92 = assay: NCI anticancer screening, Non-Small Cell Lung Cancer HOP-92; assay type: cell-based; conditions: Homo sapiens; HOP-92, 10 μM; read-out: % Growth Inhibition (GI %)
From the text: as §1

KM12 = assay: NCI anticancer screening, Colon Cancer KM12; assay type: cell-based; conditions: Homo sapiens; KM12, 10 μM; read-out: % Growth Inhibition (GI %)
From the text: as §1

EKVX = assay: NCI anticancer screening, Non-Small Cell Lung Cancer EKVX; assay type: cell-based; conditions: Homo sapiens, read-out: % Growth Inhibition (GI %)
From the text: as §1

SW-620 = assay: NCI anticancer screening, Colon Cancer SW-620; assay type: cell-based; conditions: Homo sapiens; SW-620, 10 μM; read-out: % Growth Inhibition (GI %)
From the text: as §1

HOP-62 = assay: NCI anticancer screening, Non-Small Cell Lung Cancer HOP-62; assay type: cell-based; conditions: Homo sapiens; HOP-62, 10 μM; read-out: % Growth Inhibition (GI %)
From the text: as §1

RXF 393 = assay: NCI anticancer screening, Renal Cancer RXF 393; assay type: cell-based; conditions: Homo sapiens; RXF 393, 10 μM; read-out: % Growth Inhibition (GI %)
From the text: as §1

SNB-75 = assay: NCI anticancer screening, CNS Cancer SNB-75; assay type: cell-based; conditions: Homo sapiens; SNB-75, 10 μM; read-out: % Growth Inhibition (GI %)
From the text: as §1

U251 = assay: NCI anticancer screening, CNS Cancer U251; assay type: cell-based; conditions: Homo sapiens, U-251; U251, 10 μM; read-out: % Growth Inhibition (GI %)
From the text: as §1

[2] = test system: leukemia cells (CCRF-CEM; HL-60 (TB); K-562; MOLT-4; RPMI-8226, SR); assay: NCI anticancer screening, leukemia subpanel; assay type: cell-based, human; conditions: smaller GI% than the other compounds
From the text: as §1

T1 sequence (Q00987 1-118 T47W): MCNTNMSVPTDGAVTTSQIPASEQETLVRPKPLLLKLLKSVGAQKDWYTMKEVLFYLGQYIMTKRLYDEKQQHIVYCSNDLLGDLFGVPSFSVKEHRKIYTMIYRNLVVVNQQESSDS

## Cc1ccc([C@@H]2C3CSCN3[C@]3(C(=O)Nc4ccccc43)[C@H]2C(=O)c2nc3ccccc3[nH]2)cc1 (mixture of isomers) [Compound 6d, (3S,6′R)-6'-(1H-Benzo [d]imidazole-2-carbonyl)-7'-(p-tolyl)-3′,6′,7′,7a′-tetrahydro-1′H-spiro [indoline-3.5′-pyrrolo [1,2-c]thiazol]-2-one]
SN12C
  inhibition at 10 µM: 85.2%
[1]
  Kd: 17.4 µM
SF-268
  inhibition at 10 µM: 64%
MDA-MB-435
  inhibition at 10 µM: 70.6%
SF-295
  inhibition at 10 µM: 59%
SNB-19
  inhibition at 10 µM: 80.3%
HCT-116
  inhibition at 10 µM: 74.5%
PC-3 cells
  inhibition at 5 µM: > 50%
TK-10
  inhibition at 10 µM: 94.5%
HL-60(TB)
  inhibition at 10 µM: 96.2%
DU-145
  inhibition at 10 µM: 106%
NCI/ADR-RES
  inhibition at 10 µM: 86.2%
NCI-H226
  inhibition at 10 µM: 73.9%
COLO 205
  inhibition at 10 µM: 81.9%
SK-MEL-5
  inhibition at 10 µM: 83.3%
786-0
  inhibition at 10 µM: 86.1%
CCRF-CEM
  inhibition at 10 µM: 89.5%
SK-OV-3
  inhibition at 10 µM: 94.2%
OVCAR-8
  inhibition at 10 µM: 95.9%
MDA-MB 231 cells
  IC50: 4.3 ± 0.137 µM
  inhibition: 51.7 ± 1.3%
HOP-92
  inhibition at 10 µM: 87%
KM12
  inhibition at 10 µM: 75.4%
EKVX
  inhibition at 10 µM: 71.6%
SW-620
  inhibition at 10 µM: 92%
HOP-62
  inhibition at 10 µM: 105%
RXF 393
  inhibition at 10 µM: 57.1%
SNB-75
  inhibition at 10 µM: 61.4%
U251
  inhibition at 10 µM: 73.3%

## O=C(c1nc2ccccc2[nH]1)[C@H]1[C@H](c2ccc(Cl)cc2)C2CSCN2[C@]12C(=O)Nc1ccccc12 (stereo partly drawn) [Compound 6b, (3S,6′R)-6'-(1H-Benzo [d]imidazole-2-carbonyl)-7'-(4-chlorophenyl)-3′,6′,7′,7a′-tetrahydro-1′H-spiro [indoline-3.5′-pyrrolo [1,2-c]thiazol]-2-one]
SN12C
  inhibition at 10 µM: 80.7%
SF-268
  inhibition at 10 µM: 77.5%
MDA-MB-435
  inhibition at 10 µM: 79.9%
SF-295
  inhibition at 10 µM: 77.5%
SNB-19
  inhibition at 10 µM: 77.7%
HCT-116
  inhibition at 10 µM: 60.5%
PC-3 cells
  inhibition at 5 µM: 51.9%
TK-10
  inhibition at 10 µM: 121%
HL-60(TB)
  inhibition at 10 µM: 98.3%
DU-145
  inhibition at 10 µM: 97.4%
NCI/ADR-RES
  inhibition at 10 µM: 84.7%
NCI-H226
  inhibition at 10 µM: 74%
SK-MEL-5
  inhibition at 10 µM: 91.6%
786-0
  inhibition at 10 µM: 97.6%
CCRF-CEM
  inhibition at 10 µM: 86.3%
OVCAR-8
  inhibition at 10 µM: 89.5%
MDA-MB 231 cells
  IC50: 4.76 ± 0.265 µM
  inhibition: 52.7 ± 2.94%
HOP-92
  inhibition at 10 µM: 100%
KM12
  inhibition at 10 µM: 66.5%
EKVX
  inhibition at 10 µM: 80.7%
SW-620
  inhibition at 10 µM: 77%
[2]
  GI% for MOLT-4, RPMI-8226, and SR cancer cells: 75%
HOP-62
  inhibition at 10 µM: 91.7%
RXF 393
  inhibition at 10 µM: 71.1%
SNB-75
  inhibition at 10 µM: 69.1%
U251
  inhibition at 10 µM: 81.2%

## O=C(c1nc2ccccc2[nH]1)[C@H]1[C@H](c2cccc(O)c2)C2CSCN2[C@]12C(=O)Nc1ccccc12 (stereo partly drawn) [Compound 6h, (3S,6′R)-6'-(1H-Benzo [d]imidazole-2-carbonyl)-7'-(3-hydroxyphenyl)-3′,6′,7′,7a′-tetrahydro-1′H-spiro [indoline-3.5′-pyrrolo [1,2-c]thiazol]-2-one]
SN12C
  inhibition at 10 µM: 94.8%
[1]
  Kd: 6.68 µM
SF-268
  inhibition at 10 µM: 88.5%
MDA-MB-435
  inhibition at 10 µM: 93.5%
SF-295
  inhibition at 10 µM: 105%
SNB-19
  inhibition at 10 µM: 97.8%
HCT-116
  inhibition at 10 µM: 89%
PC-3 cells
  inhibition at 5 µM: 40.4 ± 1.25%
TK-10
  inhibition at 10 µM: 113%
HL-60(TB)
  inhibition at 10 µM: 104%
DU-145
  inhibition at 10 µM: 105%
NCI/ADR-RES
  inhibition at 10 µM: 97.1%
NCI-H226
  inhibition at 10 µM: 99.1%
SK-MEL-5
  inhibition at 10 µM: 93.7%
786-0
  inhibition at 10 µM: 101%
CCRF-CEM
  inhibition at 10 µM: 108%
OVCAR-8
  inhibition at 10 µM: 97%
MDA-MB 231 cells
  IC50: 5.44 ± 0.167 µM
  inhibition: 40.2%
HOP-92
  inhibition at 10 µM: 98.3%
KM12
  inhibition at 10 µM: 89.4%
EKVX
  inhibition at 10 µM: 96.6%
SW-620
  inhibition at 10 µM: 91.8%
HOP-62
  inhibition at 10 µM: 96.4%
RXF 393
  inhibition at 10 µM: 104%
SNB-75
  inhibition at 10 µM: 74.5%
U251
  inhibition at 10 µM: 98.9%

## O=C(c1nc2ccccc2[nH]1)[C@H]1[C@H](c2ccccc2)C2CSCN2[C@]12C(=O)Nc1ccccc12 (mixture of isomers) [Compound 6a, (3S,6′R)-6'-(1H-benzo [d]imidazole-2-carbonyl)-7′-phenyl-3′,6′,7′,7a′-tetrahydro-1′H-spiro [indoline-3.5′-pyrrolo [1,2-c]thiazol]-2-one]
SN12C
  inhibition at 10 µM: 106%
[1]
  Kd: 87.7 µM
SF-268
  inhibition at 10 µM: 98.1%
MDA-MB-435
  inhibition at 10 µM: 103%
SF-295
  inhibition at 10 µM: 104%
SNB-19
  inhibition at 10 µM: 97%
HCT-116
  inhibition at 10 µM: 106%
PC-3 cells
  inhibition at 5 µM: > 50%
TK-10
  inhibition at 10 µM: 110%
HL-60(TB)
  inhibition at 10 µM: 101%
DU-145
  inhibition at 10 µM: 115%
NCI/ADR-RES
  inhibition at 10 µM: 105%
NCI-H226
  inhibition at 10 µM: 95.3%
COLO 205
  inhibition at 10 µM: 99.9%
SK-MEL-5
  inhibition at 10 µM: 92.7%
786-0
  inhibition at 10 µM: 102%
CCRF-CEM
  inhibition at 10 µM: 111%
SK-OV-3
  inhibition at 10 µM: 99.1%
OVCAR-8
  inhibition at 10 µM: 96.1%
MDA-MB 231 cells
  IC50: 2.97 ± 0.047 µM
  inhibition: 55.5 ± 0.761%
HOP-92
  inhibition at 10 µM: 95.5%
KM12
  inhibition at 10 µM: 105%
EKVX
  inhibition at 10 µM: 106%
SW-620
  inhibition at 10 µM: 97.8%
HOP-62
  inhibition at 10 µM: 99.3%
RXF 393
  inhibition at 10 µM: 101%
SNB-75
  inhibition at 10 µM: 79.8%
U251
  inhibition at 10 µM: 93.9%
